Assay results from patent US8017638B2, “Isoxazole derivative and isothiazole derivative having inhibitory activity on 11β-hydroxysteroid dehydrogenase type 1” (Shionogi & Co., Ltd., priority 2006, dated 2011).

How the values were obtained:
[1] = molecular target: recombinant human 11β-HSD1 (Homo sapiens, UniProt P28845); assay: Enzyme activity assay on human 11β-HSD1 (HTRF, cortisol production); type: biochemical; conditions: recombinant human 11β-HSD1, 5 μM cortisone as substrate, 2 hours at 37° C., read-out: humanIC50
Experimental: Evaluation of 11β-HSD1 Inhibitors (Enzyme Activity Assay on Human 11β-HSD1)
Enzymatic activity for human 11β-HSD1 was determined in a 10 μl final volume of assay mixture containing 50 mM sodium phosphate buffer (pH 7.6), 1 mg/ml bovine serum albumin, 0.42 mg/ml NADPH, 1.26 mg/ml glucose-6-phosphate, glucose-6-phosphate dehydrogenase, test compound, recombinant human 11β-HSD1, and 5 μM cortisone as substrate. The reaction was started with the addition of cortisone. After incubation for 2 hours at 37° C., 5 μl of europium cryptate-labelled anti-cortisol antibody and 5 μl of XL665-labeled cortisol were added. After further incubation for 2 hours at room temperature, the homogeneous time-resolved fluorescence (HTRF) signal was measured. The cortisol production was quantitated by a standard curve generated with several known concentrations of cortisol in each assay.
(§1) The amount of cortisol production without compounds served as control, and the percent inhibition by test compound at each concentration was calculated. The IC50 value of the compound for 11β-HSD1 was obtained using the inhibition curve generated by plotting the percent inhibition versus the concentration of test compound.

[2] = molecular target: recombinant mouse 11β-HSD1 (Mus musculus, UniProt P50172); assay: Enzyme activity assay on mouse 11β-HSD1 (HTRF, corticosterone production); type: biochemical; conditions: recombinant mouse 11β-HSD1, 2 μM 11-dehydrocorticosterone as substrate, 2 hours at 37° C., read-out: mouseIC50
Experimental: Evaluation of 11β-HSD1 Inhibitors (Enzyme Activity Assay on Mouse 11β-HSD1)
Enzymatic activity for mouse 11β-HSD1 activity was determined in a 10 μl final volume of assay mixture containing 50 mM sodium phosphate buffer (pH 7.6), 1 mg/ml bovine serum albumin, 0.42 mg/ml NADPH, 1.26 mg/ml glucose-6-phosphate, glucose-6-phosphate dehydrogenase, test compound, recombinant mouse 11β-HSD1, and 2 μM 11-dehydrocorticosterone as substrate. The reaction was started with the addition of 11-dehydrocorticosterone. After incubation for 2 hours at 37° C., 5 μl of europium cryptate-labelled anti-cortisol antibody and 5 μl of XL665-labeled cortisol were added. After further incubation for 2 hours at room temperature, the HTRF signal was measured. The corticosterone production was quantitated by a standard curve generated with several known concentrations of corticosterone in each assay.
as §1, with “corticosterone” for “cortisol”, “by” for “by test”

recombinant mouse 11β-HSD1, sequence (P50172 whole entry): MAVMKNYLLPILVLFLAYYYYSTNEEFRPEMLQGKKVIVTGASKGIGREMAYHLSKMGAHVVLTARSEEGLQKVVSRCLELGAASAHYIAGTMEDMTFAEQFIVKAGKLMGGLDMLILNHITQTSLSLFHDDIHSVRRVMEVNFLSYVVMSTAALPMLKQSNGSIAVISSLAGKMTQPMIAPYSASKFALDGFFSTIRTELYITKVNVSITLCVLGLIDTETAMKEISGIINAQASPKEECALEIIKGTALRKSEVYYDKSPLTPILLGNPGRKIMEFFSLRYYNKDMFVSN
recombinant human 11β-HSD1, sequence (P28845 whole entry): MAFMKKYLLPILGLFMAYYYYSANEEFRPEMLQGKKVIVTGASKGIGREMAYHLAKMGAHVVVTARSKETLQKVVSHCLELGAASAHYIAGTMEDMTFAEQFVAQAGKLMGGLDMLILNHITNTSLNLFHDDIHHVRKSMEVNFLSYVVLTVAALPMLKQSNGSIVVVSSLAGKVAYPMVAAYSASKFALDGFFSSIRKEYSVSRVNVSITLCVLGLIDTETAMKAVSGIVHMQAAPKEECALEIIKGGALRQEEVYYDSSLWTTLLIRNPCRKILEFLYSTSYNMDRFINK

IC50 [1] [nM] | IC50 [2] [nM] | Structure (SMILES)
180 | 500 | CCCSc1c(OCC2CCNCC2)noc1C(=O)NC1C2CC3CC(C2)CC1C3 (stereo not drawn) [Compound 9c]
140 | 1600 | CC(C)Sc1c(OCC2CCNCC2)noc1C(=O)NC1C2CCCC1CCC2 (stereo not drawn) [Compound 12b]
260 | 38 | CC(C)Sc1c(OCC(C)(C)NC(=O)NCCN)noc1C(=O)NC1C2CC3CC(C2)CC1C3 (stereo not drawn) [Compound 27]
43 | 330 | CC(C)Sc1c(OCC(C)(C)N)noc1C(=O)NC1C2CC3CC(C2)CC1C3 (stereo not drawn) [Compound 29]
35 | 49 | CC(C)Sc1c(OCC(C)(C)C(=O)N2CCNCC2)noc1C(=O)NC1C2CC3CC(C2)CC1C3 (stereo not drawn) [II-18]
51 | 160 | CC(C)Sc1c(OCC(F)(F)C(=O)NCCN)noc1C(=O)NC1C2CC3CC(C2)CC1C3 (stereo not drawn) [II-25]
71 | 23 | CC(C)Sc1c(OCC(C)(C)NC(=O)C2(N)CC2)noc1C(=O)NC1C2CC3CC(C2)CC1C3 (stereo not drawn) [II-49]
77 | 6.5 | CC(C)CSc1c(OCC(C)(C)CCCN)noc1C(=O)NC1C2CC3CC(C2)CC1C3 (stereo not drawn) [II-72]
95 | 21 | COCC(C)(C)COc1noc(C(=O)NC2C3CC4CC(C3)CC2C4)c1SC(C)C (stereo not drawn) [II-117]
86 | 33 | CC(C)Sc1c(OCC(C)(C)C#N)noc1C(=O)N[C@H]1C2CC3CC1C[C@](O)(C3)C2 [II-130]
10 | 27 | O=C(NC1(COc2noc(C(=O)N[C@H]3C4CC5CC3C[C@](O)(C5)C4)c2SC2CCCC2)CC1)c1ccc(Cl)cc1Cl [II-150]
25 | 14 | CC(C)(COc1noc(C(=O)N[C@H]2C3CC4CC2C[C@](O)(C4)C3)c1SC1CCCC1)N1CCOC1=O [II-153]
